Data: PMC6286365 (Scientific Reports, 2018)
Entries after “also recorded” stand apart in the source; their conditions may differ.

Assays:
[1] = Metabolic stability in mouse liver microsomes with NADPH; format: in vitro ADME; details: pH 7.4, 1 μM compound, read-out: percent remaining
Method: One potential liability when using chemical probes in vivo is lack of metabolic stability which structurally inactivates the compound before it can reach its molecular target. […] Percent of drug remaining over time was determined by liquid chromatography–tandem mass spectrometry analysis (LC/MS/MS).
Metabolic stability assay was conducted in mouse or human liver microsomes as we have described previously with minor modifications. Briefly, the reaction was carried out using potassium phosphate buffer (100 mM, pH 7.4), in the presence of an NADPH regenerating system (compound final concentration was 1 μM; 0.2 mg/mL microsomes). Compound disappearance was monitored over time using a liquid chromatography and tandem mass spectrometry (LC/MS/MS) method. Chromatographic analysis was performed using an Accela ultra high-performance system consisting of an analytical pump and an autosampler coupled with a TSQ Vantage mass spectrometer (Thermo Fisher Scientific Inc., Waltham, MA). […] The mobile phase consisted of 0.1% formic acid in acetonitrile and 0.1% formic acid in water with gradient elution.

primary astrocytes = assay: Inhibition of EV release from primary astrocytes (FBS withdrawal, nanoparticle tracking); format: cell-based, rat; details: 2 h treatment, dose range of concentrations
Method: Independent laboratories have shown that pharmacological and genetic inhibition of nSMase2 blocks EV secretion from glial cells. […] Two hours after treatment, EVs were isolated from the media and quantified by nanoparticle tracking analysis. […] Cells were fixed and immunofluorescence labeling for GFAP was performed.
Media was collected after 2 h incubation and centrifuged at 2700 × g for 15 min at 4 °C. Supernatant was collected and the number of extracellular vesicles (EVs) was quantified using ZetaView Nanoparticle Tracker. The mean concentration of EVs/mL (±SEM) was calculated from 4 replicate experiments. […] Astrocytes grown in complete medium were used as no treatment control. Cells were fixed and stained with anti-GFAP antibody (1:500, Sigma). Fluorescence intensity was measured using Image J. (C) Quantitation of fluorescence in (B). Bar graph represents background corrected mean fluorescence intensity measured from 100 astrocytes per condition. Error bars represent standard error of mean. One-way ANOVA followed by Tukey’s posthoc test was performed.
Potential inhibition of test compounds on EV release from primary astrocytes was carried out as previously described (Dickens et al., 2017). Briefly, rat primary astrocytes were seeded onto 6-well plates at a density of 20,000 cells/well. Twenty-four hours after seeding, astrocytes were washed with PBS and the medium changed to media without FBS. Absence of FBS mimics a trophic factor withdrawal stimulus causing EVs to be released from astrocytes via an nSMase2-dependent pathway. […] The supernatant was collected and the number of EVs quantified using ZetaView Nanoparticle Tracker (Particle Metrix GmBH, Meerbusch, Germany) and the corresponding ZetaVeiw software (8.03.04.01). Nanosphere size standard 100 nm (Thermo Scientific) was used to calibrate the instrument prior to sample readings. […] For each sample 1 mL of the supernatant was injected into the sample-carrier cell and the particle count measured at 5 positions, with 2 cycles of reading per position. […] Mean concentration of EVs/mL (±SEM) was calculated from 4 replicates.

GFAP-GFP mice = assay: Striatal IL-1β brain inflammation model: neutrophil infiltration into brain (Ly6b immunohistochemistry); format: in vivo, mouse; details: 10 mg/kg IP 0.5 h before and 12 h after IL-1β; 24 h
Method: As we have previously shown[11],[18], striatal injection of IL-1β in mice expressing GFP-GFAP in astroglia triggers a release of GFP-labelled EVs that rapidly enter into plasma, resulting in cytokine upregulation in liver and peripheral immune cell migration into brain[11]. […] There were two groups of mice: the first group was sacrificed 2 h after IL-1β administration by heart puncture, and GFP-labeled circulating EVs were measured with liver cytokines. […] Counting of astrocyte-released EV (GFP+) from blood and liver cytokine analysis was conducted by single injection of DPTIP. […]
Compounds were given 0.5 h before IL-1β dosing. […] (C) Liver cytokine levels under different treatments as measured by qRT-PCR of RNA isolated from fresh frozen liver tissue. Samples were analyzed in triplicate. **p < 0.01 and *p < 0.05 compared to saline control; ^##p < 0.01 and ^#p < 0.05 compared to IL1-β group. (D) Neutrophil levels in brain as measured by immunohistochemistry using coronal brain sections and Ly6b antibody. (E) Quantitation of (D); **p < 0.01 compared to saline control; ^##p < 0.01 compared to IL1-β group.
Coronal brain sections (30 µm) were prepared using a cryostat microtome (Leica). […] Stereological quantitation was performed using a one-in-five series (270-µm spacing), from the rostral point of bregma +1.10 mm to the caudal point of bregma −0.58 mm as previously described.

## COc1cc(-c2nc(-c3cccs3)c(-c3ccccc3)[nH]2)cc(OC)c1O [DPTIP, 2,6-Dimethoxy-4-(5-Phenyl-4-Thiophen-2-yl-1H-Imidazol-2-yl)-Phenol]
[1]
  remaining at 1 h, 1 μM: 100%
Primary astrocytes
  effect on EV release from primary astrocytes: dose-dependently inhibited EV release; also recorded: inhibited EV release from astrocytes in a dose dependent manner
GFAP-GFP mice
  reduction of neutrophil migration into brain compared to IL-1β-treated animals: 80 ± 23%
